“And” between values parts separate entries of the source, which are not always exact repeats. Equal values may be shown once. Read-outs that look alike come from different tables or passages of the source.
What was measured:
[1] = HPLC kinetic solubility assay; type: physicochemical; conditions: kinetic solubility by HPLC, 10 mM phosphate-buffered saline pH 7.4, 1% DMSO
Protocol: 3.2 HPLC solubility assay
DMSO. Following shaking of the suspension on a Bohdan Shaker at 500 rpm for 2 hours at room […]
200 µL of the supernatant was transferred to a 2 mL Agilent vial containing 50 µL of DMSO (Sigma […]
detection using an external standard which was prepared by pipetting 10 µL of the same batch of […]
The detail of the HPLC method is as following: chromatographic separation at 30°C is carried out over a 5 minute gradient elution method from 90:10 to 10:90 water:methanol (both modified with 0.1% formic acid) at a flow rate of 1.5 mL/min. Calibration curve is prepared by injecting 0.5, 2.5, and 5 µL of compound external standard.
62.5 µL of compound solubility sample. […]

[2] = molecular target: human BCL6 BTB domain (Homo sapiens, UniProt P41182); test: biochemical; conditions: for BCL6 TR-FRET mean pIC50: mean of replicates; for LE: ligand efficiency, 1.4*(pIC50)/HAC from TR-FRET; for LLE: lipophilic ligand efficiency from TR-FRET pIC50 and MoKa logD7.4
Description: 6. Supplementary tables … S-17
Table S1: summary statistics and individual replicate values … S-17 […]
1. Supplementary experimental: protein production, purification and crystallography 1.1 BCL6 constructs used for assays and crystallography
A first construct of BCL6 BTB domain, which we will refer to as Trx-6His-HRV3C-BCL6, was obtained […]
3C protease cleavage site. For the TR-FRET assay, the Trx-6His-HRV3C-BCL6 protein construct was […]
used without cleaving the tag, as a 6His was needed to bind to the anti-6His-Terbium antibody. […]
For both plasmid constructs described above, transformed BL21-AI E. coli cells were grown in LB […]
carried out at 18 °C for 18 hours. Cells were harvested by centrifugation (5500 g for 30 minutes at 4 […]
oC) and stored at -80 °C.
2. Supplementary experimental: biological assay conditions
IC50 values were determined using […]
a sigmoidal four-parameter logistic fit equation.
Individual replicates shown in supplementary

[3] = NMR kinetic solubility assay; type: physicochemical; conditions: kinetic solubility by NMR, HEPES buffer pH 8, 4% DMSO
Protocol: 3. Supplementary experimental: physicochemical assays
The plate was then sealed and incubated at room temperature for 20 hours, without shaking. The plate was centrifuged again for 1 minute at […]
spectrometer equipped with a 5 mm TCI-CryoProbe. […]
deuterated solvent. […] All NMR data were acquired at the […]
contained 16k time-domain data points. Relaxation delay was set to 20 sec. Water signal was […]
The quantification of the compound concentration was carried out using MestReNova

[4] = PAMPA permeability; conditions: pH 7.4
[5] = BCL6 TR-FRET IC50 individual replicates, single replicates, 10 nM BCL6 for early examples, else 1 nM
[6] = read-out: BCL6 TR-FRET IC50, geometric mean of replicates
[7] = read-out: BCL6 TR-FRET IC50 individual replicates, single replicates, 10 nM BCL6 for early examples, else 1 nM
[8] = BCL6 TR-FRET IC50, geometric mean of replicates
[9] = BCL6 TR-FRET mean pIC50, mean of replicates

Structure (SMILES) | IC50 [2, 5] | BCL6 TR-FRET mean pIC50 [2] | IC50 [2, 6] | Aq. Sol [3] | other results
CC1CCc2c(c3cc(Nc4ccnc(Cl)c4C#N)ccc3n(C)c2=O)N1 (stereo not shown) [Compound 5b, 2-Chloro-4-((2,6-dimethyl-5-oxo-1,2,3,4,5,6-hexahydrobenzo[h][1,6]-naphthyridin-9-yl)amino)nicotinonitrile] | 1030 nM and 960 nM and 1460 nM and 1670 nM and 6960 nM and 4820 nM | 5.68 | 2080 nM and 2100 nM |  | Aq. Sol [1]: 1.8 µM
CCNc1c(C)c(=O)n(C)c2ccc(Nc3ccnc(Cl)c3C#N)cc12 [Compound 4, 2-Chloro-4-((4-(ethylamino)-1,3-dimethyl-2-oxo-1,2-dihydroquinolin-6-yl)amino)nicotinonitrile] | 6090 nM and 4590 nM and 6040 nM | 5.25 | 5580 nM and 5600 nM |  | IC50 [2, 7]: 5570 nM and 5760 nM
C[C@H]1COCc2c(c3cc(Nc4ccnc(Cl)c4C#N)ccc3n(C)c2=O)N1 [Compound 8, (S)-2-Chloro-4-((2,7-dimethyl-6-oxo-1,2,3,5,6,7-hexahydro-[1,4]oxazepino[6,5-c]quinolin-10-yl)amino)nicotinonitrile] | 2350 nM | 5.65 | 2240 nM and 2200 nM |  | IC50 [2, 7]: 2190 nM and 2180 nM
CC1CC(C)(C)Oc2c(c3cc(Nc4ccnc(Cl)c4C#N)ccc3n(C)c2=O)N1 (stereo not shown) [Compound 13b, 2-Chloro-4-((2,4,4,7-tetramethyl-6-oxo-1,2,3,4,6,7-hexahydro-[1,4]oxazepino[2,3-c]quinolin-10-yl)amino)nicotinonitrile] | 8700 nM and 16500 nM and > 6600 nM |  |  | 12 µM | IC50 [2, 8]: > 9800 nM
Cn1c(=O)c2c(c3cc(Nc4ccnc(Cl)c4C#N)ccc31)NC(C1CCC1)CCO2 (stereo not shown) [Compound 11c, 2-Chloro-4-((2-cyclobutyl-7-methyl-6-oxo-1,2,3,4,6,7-hexahydro-[1,4]oxazepino[2,3-c]quinolin-10-yl)amino)nicotinonitrile] | 3570 nM and 5260 nM | 5.37 | 4310 nM and 4300 nM | 26 µM | IC50 [2, 7]: 4270 nM
CC1Nc2c(c(=O)n(C)c3ccc(Nc4ccnc(Cl)c4C#N)cc23)OCC1(C)C (stereo not shown) [Compound 13c, 2-Chloro-4-((2,3,3,7-tetramethyl-6-oxo-1,2,3,4,6,7-hexahydro-[1,4]oxazepino[2,3-c]quinolin-10-yl)amino)nicotinonitrile] |  |  |  | 31 µM | 
CC1Nc2c(c(=O)n(C)c3ccc(Nc4ccnc(Cl)c4C#N)cc23)OCC12CC2 (stereo not shown) [Compound 13d, 2-Chloro-4-((2′,7′-dimethyl-6′-oxo-1′,2′,6′,7′-tetrahydro-4′H-spiro[cyclopropane-1,3′-[1,4]oxazepino[2,3-c]quinolin]-10′-yl)amino)nicotinonitrile] | 1070 nM and 2070 nM and 1870 nM | 5.8 | 1590 nM and 1600 nM | 126 µM | 
Cn1c(=O)c2c(c3cc(Nc4ccnc(Cl)c4C#N)ccc31)N[C@H](C1CC1)C(F)(F)CO2 [Compound 14, (R)-2-Chloro-4-((2-cyclopropyl-3,3-difluoro-7-methyl-6-oxo-1,2,3,4,6,7-hexahydro-[1,4]oxazepino[2,3-c]quinolin-10-yl)amino)nicotinonitrile] | 615 nM and 397 nM | 6.31 | 494 nM and 490 nM |  | 
C[C@H]1C[C@H](C)Oc2c(c3cc(Nc4ccnc(Cl)c4C#N)ccc3n(C)c2=O)N1 [Compound 13a, 2-Chloro-4-(((2S,4S)-2,4,7-trimethyl-6-oxo-1,2,3,4,6,7-hexahydro-[1,4]oxazepino[2,3-c]quinolin-10-yl)amino)nicotinonitrile] |  |  |  | 114 µM | 
N#Cc1c(Nc2ccc3[nH]c(=O)c4c(c3c2)NCCC4)ccnc1Cl [Compound 5a, 2-Chloro-4-((5-oxo-1,2,3,4,5,6-hexahydrobenzo[h][1,6]naphthyridin-9-yl)amino)nicotinonitrile] | 7060 nM and 6930 nM and 3890 nM and 7370 nM | 5.21 | 6120 nM and 6100 nM |  | Aq. Sol [1]: 12 µM
CNC(=O)COc1cc2cc(Nc3nc(N4CCC(C(=O)N(C)C)CC4)ncc3Cl)cc(OC)c2n(C)c1=O [BI-3812, reference compound] | 3 nM |  |  |  | IC50 [2, 9]: 3.02 nM; LE [2]: 0.31; LLE [2]: 6.76
C[C@@H]1CCOc2c(c3cc(Nc4ccnc(Cl)c4C#N)ccc3n(C)c2=O)N1 [Compound 9b, (R)-2-Chloro-4-((2,7-dimethyl-6-oxo-1,2,3,4,6,7-hexahydro-[1,4]oxazepino-[2,3-c]quinolin-10-yl)amino)nicotinonitrile] |  |  |  | 190^+ μM | 
CC1COc2c(c3cc(Nc4ccnc(Cl)c4C#N)ccc3n(C)c2=O)N1 (stereo not shown) [Compound 6, 2-Chloro-4-((2,6-dimethyl-5-oxo-2,3,5,6-tetrahydro-1H-[1,4]oxazino[2,3-c]quinolin-9-yl)amino)nicotinonitrile] | 1110 nM and 1390 nM and 1530 nM | 5.88 | 1330 nM and 1300 nM |  | Aq. Sol [1]: 11 µM
CCNc1cc(=O)[nH]c2ccc(Nc3ccnc(Cl)c3C#N)cc12 [Compound 2] |  | 5.88 | 1310 nM and 1300 nM |  | Aq. Sol [1]: 9.7 µM; IC50 [2, 8]: 1200 nM; PAMPA Pe (7.4) [4]: <0.1 × 10^–6 cm s^–1
CCC1CCOc2c(c3cc(Nc4ccnc(Cl)c4C#N)ccc3n(C)c2=O)N1 (stereo not shown) [Compound 11b, 2-Chloro-4-((2-ethyl-7-methyl-6-oxo-1,2,3,4,6,7-hexahydro-[1,4]oxazepino[2,3-c]quinolin-10-yl)amino)nicotinonitrile] | 454 nM and 496 nM and 1020 nM | 6.21 | 612 nM and 610 nM | 96 µM | 
C[C@H]1COC(=O)c2c(c3cc(Nc4ccnc(Cl)c4C#N)ccc3n(C)c2=O)N1 [Compound 7, (S)-2-Chloro-4-((2,7-dimethyl-5,6-dioxo-1,2,3,5,6,7-hexahydro-[1,4]oxazepino[6,5-c]quinolin-10-yl)amino)nicotinonitrile] | 153 nM and 151 nM and 56 nM and 58 nM | 7.03 | 94 nM |  | IC50 [2, 7]: 98 nM; Papp ([4]; PAMPA): < 0.2 ×10⁻⁶ cm/s
Cn1c(=O)c2c(c3cc(Nc4ccnc(Cl)c4C#N)ccc31)NC(C(F)F)CCO2 (stereo not shown) [Compound 11e, 2-Chloro-4-((2-(difluoromethyl)-7-methyl-6-oxo-1,2,3,4,6,7-hexahydro-[1,4]oxazepino[2,3-c]quinolin-10-yl)amino)nicotinonitrile] | 2150 nM and 1540 nM and 2500 nM | 5.69 | 2020 nM and 2000 nM | 119 µM | 
C[C@H]1CCOc2c(c3cc(Nc4ccnc(Cl)c4C#N)ccc3n(C)c2=O)N1 [Compound 9a, (S)-2-Chloro-4-((2,7-dimethyl-6-oxo-1,2,3,4,6,7-hexahydro-[1,4]oxazepino-[2,3-c]quinolin-10-yl)amino)nicotinonitrile] |  |  |  | 200^+ μM and 199 μM | 
Cn1c(=O)c2c(c3cc(Nc4ccnc(Cl)c4C#N)ccc31)NCCCO2 [Compound 10, 2-Chloro-4-((7-methyl-6-oxo-1,2,3,4,6,7-hexahydro-[1,4]oxazepino[2,3-c]quinolin-10-yl)amino)nicotinonitrile] | 15600 nM and 22400 nM | 4.73 | 18700 nM and 19000 nM |  | Aq. Sol [1]: 12 µM
CNC(=O)COc1cc2cc(Nc3nc(N4C[C@H](C)C[C@H](C)C4)ncc3Cl)ccc2n(C)c1=O [BI-3802, reference compound] | 12 nM and 51 nM and 25 nM and 107 nM and 39 nM and 21 nM |  |  |  | IC50 [2, 9]: 33.1 nM; LE [2]: 0.31; LLE [2]: 3.98
CC(C)C1CCOc2c(c3cc(Nc4ccnc(Cl)c4C#N)ccc3n(C)c2=O)N1 (stereo not shown) [Compound 11d, 2-Chloro-4-((2-isopropyl-7-methyl-6-oxo-1,2,3,4,6,7-hexahydro-[1,4]oxazepino[2,3-c]quinolin-10-yl)amino)nicotinonitrile] | 2410 nM and 3460 nM and 3640 nM | 5.51 | 3120 nM and 3100 nM | 40 µM | 
